The results in this text go back to PubChem BioAssay (NCI).

Values joined by “and” are separate entries in the source; they are usually repeats but may differ in a detail not shown here. Identical values can stand only once.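 Where inhibition never reached the appropriate level, the endpoint shown equals the highest concentration tested. Otherwise, values were interpolated linearly from a five-concentration, 48-hour dose response in 96-well plates. GI50 = concentration required for 50% inhibition of growth. Definition used: TGI = concentration required for complete inhibition of growth.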 Where a SMILES comes first, the peptide text is derived from it. [ ]: non-standard residue; d: D form. The star is where a group is joined. ξ: configuration not given here. X3 = COc1ccc(C(N*)c2ccc(OC)cc2)cc1; NMeF = CN[C@@H](Cc1ccccc1)C(=O)O; NMeD = CN[C@@H](CC(=O)O)C(=O)O; NMeV = CN[C@H](C(=O)O)C(C)C; ξNMeV = CNC(C(=O)O)C(C)C; Boc = CC(C)(C)OC(=O)*; ξNMeA = CNC(C)C(=O)O; ξV = CC(C)C(N)C(=O)O

Common to all, as to assay: NCI tumour cell line growth inhibition, 48 h
Experiment [1] deals with A549 NSCLC.
Experiment [2] concerns IGROV1 ovarian.
The subject of experiment [3] is SN12C renal.
Experiment [4] deals with HL-60(TB) leukemia.
In experiment [5] the test system is COLO 205 colon.
In experiment [6] the test system is SK-MEL-28 melanoma.
The test system of experiment [7] is LOX IMVI melanoma.
The test system of experiment [8] is UO-31 renal.
For experiment [9], the system named is HCT-116 colon.
The subject of experiment [10] is A498 renal.

`O=C1CCCCN1c1ccccc1C#C/C=C\C#Cc1ccccc1C(F)(F)F`: the GI50 in experiment [1] is 1.57 µM; in [2], 1.12 µM; in experiment [3], 1.59 µM; in [4], 1.27 µM; in experiment [5] it was 11.5 µM; in [6], 1.09 µM. The GI50 in experiment [7] is 1.84 µM; in experiment [8] it was 2 µM; in experiment [9] it was 1.01 µM; in [10], 2.25 µM. Also, the TGI in experiment [1] is 5.16 µM; in experiment [2] it was 3.63 µM; in [3], 3.67 µM; in experiment [4], 3.29 µM; in experiment [5], over 50 µM; in experiment [6], 3.36 µM. The TGI is 8.87 µM in experiment [7], 13.6 µM in experiment [8], 2.59 µM in experiment [9] and 28.4 µM in experiment [10].

In the case of `CN(C)c1cc(NN=C(c2ccc(O)cc2)c2ccc(O)cc2)c([N+](=O)[O-])cc1[N+](=O)[O-]`, the GI50 is 4.45 µM in experiment [1]; 7.16 µM in experiment [2]; 10.4 µM in experiment [3]; 4.98 µM in experiment [4]; 8.52 µM in experiment [5]; 2.85 µM in experiment [6]. For the same molecule, the GI50 in experiment [7] was 3.04 µM; in experiment [8], 5.32 µM; in experiment [9], 5.14 µM; in experiment [10] it was 8.18 µM. Moreover, the TGI was 18.5 µM in [1]; 24.8 µM in [2]; 23.7 µM in experiment [3]; 55.8 µM in experiment [4]; 24.7 µM in experiment [5]; 10.5 µM in experiment [6]. Besides, the TGI worked out at 15.2 µM in [7], 20.5 µM in experiment [8], 21.1 µM in [9] and 21.6 µM in [10].

For the molecule `O=C(O)c1ccc2c(c1C(=O)O)C(=O)OC2(c1ccc(O)cc1)c1ccc(O)cc1`, the TGI in experiment [1], in [2], in experiment [3], in experiment [4], in experiment [5] and in experiment [6] was over 100 µM in each case. In addition, the TGI in experiment [7], in experiment [8], in experiment [9] and in experiment [10] was over 100 µM each time.

`Nc1ccc(C2=NNC(=O)Cc3cc4c(cc32)OCCO4)cc1Cl`: the GI50 is 2.95 µM in [1]; 4.54 µM in experiment [2]; 14.9 µM in experiment [3]; 1.72 µM in experiment [4]; 2.63 µM in experiment [5]; 9.1 µM in experiment [6]. For the same molecule, the GI50 in experiment [7] was 2.95 µM; in experiment [8], 16.8 µM; in experiment [9] it was 2.64 µM; in [10], 0.944 µM. In addition, the TGI in experiment [1] is over 50 µM; in experiment [2], over 50 µM; in experiment [3], over 50 µM; in [4] it was 12.3 µM; in [5], 17.5 µM; in experiment [6], over 50 µM. Also, the TGI in [7] is over 50 µM; in experiment [8] it was over 50 µM; in experiment [9] it was over 50 µM; in experiment [10], 19.9 µM.

In the case of `COc1ccc(C(NC(=O)C[C@@H](C(=O)N(C)C(C)C(=O)O)N(C)C(=O)[C@@H]2CCCN2C(=O)[C@H](C(C)C)N(C)C(=O)C(C(C)C)N(C)C(=O)[C@H](Cc2ccccc2)N(C)C(=O)C(NC(=O)OC(C)(C)C)C(C)C)c2ccc(OC)cc2)cc1` (stereo not given in full) (Boc-[ξV][NMeF][ξNMeV][NMeV]P[NMeD](X3)[ξNMeA]-OH), the GI50 in experiment [1] was 17.1 µM; in [2], 14.7 µM; in experiment [3], 19.1 µM; in experiment [4] it was 24 µM; in experiment [5] it was 17.2 µM; in experiment [6], 17.1 µM. The GI50 in experiment [7] is 17.2 µM; in experiment [8], 17.6 µM; in experiment [9], 17.3 µM; in experiment [10], 20.1 µM. In addition, the TGI in experiment [1] was > 37.5 µM and 31.7 µM; in experiment [2], 27.8 µM and 28 µM; in experiment [3], 37.5 µM and 38.9 µM; in experiment [4], 18.7 µM and 45.2 µM; in [5], 32.1 µM and 30.9 µM; in [6], 13.6 µM and 30.9 µM. The TGI in experiment [7] is 15.7 µM and 31.2 µM; in [8], 37.5 µM and 31.5 µM; in [9], 36.2 µM and 34.6 µM; in experiment [10], > 37.5 µM and 35.7 µM.

With `CC(=O)OCCOCNC(=S)N/N=C(\C)c1cnccn1`, the TGI was over 100 µM in [1]; over 100 µM in [2]; over 100 µM in experiment [3]; 76.1 µM in experiment [4]; over 100 µM in experiment [5]; over 100 µM in [6]. Also, the TGI in [7], in experiment [8], in [9] and in experiment [10] was over 100 µM in each case.

Consider `COc1ccc(/C=N/NC(=O)c2cccc3cc[nH]c23)cc1O`, for which the GI50 was 5.36 µM in experiment [1]; 7.91 µM in experiment [2]; 0.493 µM in experiment [3]; 0.55 µM in experiment [4]; 13.9 µM in experiment [5]; 6.46 µM in [6]. Further, the GI50 is 1.3 µM in experiment [7], 6.51 µM in [8], 1.72 µM in experiment [9] and 4.05 µM in experiment [10]. Also, the TGI in experiment [1] is over 100 µM; in [2] it was over 100 µM; in experiment [3], over 40.9 µM; in [4], over 22.7 µM; in [5] it was over 80.7 µM; in [6], over 100 µM. For the same molecule, the TGI in [7] was over 100 µM; in [8], over 100 µM; in experiment [9], over 100 µM; in [10] it was 86.1 µM.

For `Cc1nnc(NC(=O)c2nc(S(=O)(=O)Cc3ccc(F)cc3)ncc2Cl)s1`, the GI50 is 18.8 µM in experiment [1]; 4.87 µM in experiment [2]; 2.39 µM in experiment [3]; 2.6 µM in [4]; 1.82 µM in experiment [5]; 1.73 µM in experiment [6]. In addition, the GI50 was 1.5 µM in experiment [7], 7.15 µM in [8], 1.83 µM in [9] and 13.1 µM in experiment [10]. The TGI in experiment [1] was 35.3 µM; in experiment [2], 19.1 µM; in experiment [3], 6.56 µM; in experiment [4], 4.73 µM; in experiment [5], 3.68 µM; in [6], 3.26 µM. In addition, the TGI in [7] came to 2.96 µM; in experiment [8], 20.6 µM; in [9], 3.67 µM; in [10] it was 26.4 µM.
